For 15 compounds, EC50 and Emax results are on record in patent publication US20240208992A1, “MACROCYCLES AS CFTR MODULATORS” (Idorsia Pharmaceuticals Ltd, priority 2021, published 2024).

The assay has as its target human F508del-CFTR (Homo sapiens, UniProt P13569, DEL508-508). Nature of the assay: F508del-CFTR cell surface expression (corrector activity), DiscoveRx ß-galactosidase complementation chemiluminescence assay in recombinant U2OS cell line.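 As to all read-outs here: U2OS cells co-expressing ProLink-tagged F508del-CFTR and a membrane-anchored enzyme acceptor, where more surface CFTR restores β-galactosidase activity measured by chemiluminescence.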 The conditions noted are these: U2OS cell line, 16h compound incubation; for EC50: EC50, F508del-CFTR cell surface expression, geomean values; for Emax: U2OS, in relation to the Emax of the corrector lumacaftor (=100%), arithmetic mean values.

Broadly, the EC50 is the concentration giving half of the maximal effect. The Emax is the maximal effect, on the per cent scale that the assay sets.

Sequence of human F508del-CFTR (P13569 with tags, fused parts or gaps DEL508-508): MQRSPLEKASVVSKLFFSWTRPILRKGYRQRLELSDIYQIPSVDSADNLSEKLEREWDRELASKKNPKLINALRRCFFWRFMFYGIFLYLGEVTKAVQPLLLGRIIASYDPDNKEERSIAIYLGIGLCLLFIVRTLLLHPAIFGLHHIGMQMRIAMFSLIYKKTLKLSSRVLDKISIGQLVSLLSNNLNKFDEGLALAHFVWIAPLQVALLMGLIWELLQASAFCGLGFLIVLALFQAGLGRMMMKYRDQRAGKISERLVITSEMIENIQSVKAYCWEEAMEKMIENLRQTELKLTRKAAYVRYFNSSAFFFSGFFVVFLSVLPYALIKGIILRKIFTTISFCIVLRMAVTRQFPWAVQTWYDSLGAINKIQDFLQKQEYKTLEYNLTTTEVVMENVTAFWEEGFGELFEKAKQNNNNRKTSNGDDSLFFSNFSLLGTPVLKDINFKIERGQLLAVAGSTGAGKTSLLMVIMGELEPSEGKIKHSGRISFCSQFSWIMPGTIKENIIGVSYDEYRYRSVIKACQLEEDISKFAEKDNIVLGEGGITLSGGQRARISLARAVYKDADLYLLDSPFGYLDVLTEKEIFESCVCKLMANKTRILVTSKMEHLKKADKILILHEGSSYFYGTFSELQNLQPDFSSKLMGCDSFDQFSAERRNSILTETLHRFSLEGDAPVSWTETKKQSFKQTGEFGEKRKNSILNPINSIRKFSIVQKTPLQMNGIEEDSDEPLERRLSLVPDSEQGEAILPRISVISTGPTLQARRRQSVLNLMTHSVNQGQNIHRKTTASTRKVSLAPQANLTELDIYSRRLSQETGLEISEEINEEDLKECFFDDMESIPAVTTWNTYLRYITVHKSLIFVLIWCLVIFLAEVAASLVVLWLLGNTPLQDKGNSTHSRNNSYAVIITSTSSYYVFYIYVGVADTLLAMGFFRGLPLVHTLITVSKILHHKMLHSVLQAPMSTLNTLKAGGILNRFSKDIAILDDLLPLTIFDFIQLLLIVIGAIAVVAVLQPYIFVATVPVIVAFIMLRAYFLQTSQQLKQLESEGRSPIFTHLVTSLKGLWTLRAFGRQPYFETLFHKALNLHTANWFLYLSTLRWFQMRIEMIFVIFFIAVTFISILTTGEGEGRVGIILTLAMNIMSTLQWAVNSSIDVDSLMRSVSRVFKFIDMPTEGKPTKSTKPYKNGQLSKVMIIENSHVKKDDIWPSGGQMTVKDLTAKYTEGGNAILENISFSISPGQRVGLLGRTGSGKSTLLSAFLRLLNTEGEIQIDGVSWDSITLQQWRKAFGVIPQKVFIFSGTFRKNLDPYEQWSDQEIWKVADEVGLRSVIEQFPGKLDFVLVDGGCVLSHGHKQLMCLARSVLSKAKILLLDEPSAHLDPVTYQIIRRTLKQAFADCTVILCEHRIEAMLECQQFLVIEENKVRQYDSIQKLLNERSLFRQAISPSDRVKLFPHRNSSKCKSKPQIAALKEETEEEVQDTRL

As for `Cc1ccc(CCNC(=O)[C@@H]2CC(=O)N(C)[C@@H](CC(C)C)C(=O)N3CCOC[C@@H]3C(=O)N[C@H](Cc3ccccc3)COc3cnc4ccccc4c3C(=O)N2)cc1C` [Example 61, (9S,13S,19aR,22R)-22-benzyl-N-(3,4-dimethylphenethyl)-13-isobutyl-12-methyl-7,11,14,20-tetraoxo-7,8,9,10,11,12,13,14,16,17,19,19a,20,21,22,23-hexadecahydro-[1,4]oxazino[3′,4′:6,7][1]oxa[4,7,10,14]tetraazacycloheptadecino[17,16-c]quinoline-9-carboxamide], the EC50 came out at 421 nM and the Emax was determined as 202%.

As to `Cc1cccc(CCNC(=O)[C@@H]2CC(=O)N(C)[C@@H](CC(C)C)C(=O)N3CCOC[C@@H]3C(=O)N[C@H](Cc3ccccc3)COc3cnc4ccccc4c3C(=O)N2)c1` [Example 62, (9S,13S,19aR,22R)-22-benzyl-13-isobutyl-12-methyl-N-(3-methylphenethyl)-7,11,14,20-tetraoxo-7,8,9,10,11,12,13,14,16,17,19,19a,20,21,22,23-hexadecahydro-[1,4]oxazino[3′,4′:6,7][1]oxa[4,7,10,14]tetraazacycloheptadecino[17,16-c]quinoline-9-carboxamide], the concentration for a half-maximal effect (EC50) turned out to be 809 nM and the maximal effect (Emax) was 222%.

With `Cc1ccc(CCNC(=O)[C@@H]2CC(=O)N(C)[C@@H](CC(C)C)C(=O)N3CCOC[C@@H]3C(=O)N[C@H](Cc3ccccc3)COc3cnc4ccccc4c3C(=O)N2)c(C)c1` [Example 63, (9S,13S,19aR,22R)-22-benzyl-N-(2,4-dimethylphenethyl)-13-isobutyl-12-methyl-7,11,14,20-tetraoxo-7,8,9,10,11,12,13,14,16,17,19,19a,20,21,22,23-hexadecahydro-[1,4]oxazino[3′,4′:6,7][1]oxa[4,7,10,14]tetraazacycloheptadecino[17,16-c]quinoline-9-carboxamide], the EC50 was found to be 418 nM and the Emax turned out to be 250%.

For the compound `Cc1ccccc1CCNC(=O)[C@@H]1CC(=O)N(C)[C@@H](CC(C)C)C(=O)N2CCOC[C@@H]2C(=O)N[C@H](Cc2ccccc2)COc2cnc3ccccc3c2C(=O)N1` [Example 64, (9S,13S,19aR,22R)-22-benzyl-13-isobutyl-12-methyl-N-(2-methylphenethyl)-7,11,14,20-tetraoxo-7,8,9,10,11,12,13,14,16,17,19,19a,20,21,22,23-hexadecahydro-[1,4]oxazino[3′,4′:6,7][1]oxa[4,7,10,14]tetraazacycloheptadecino[17,16-c]quinoline-9-carboxamide], the concentration giving a half-maximal response (EC50) came to 441 nM and the Emax came to 143%.

As for `COc1cccc(CCNC(=O)[C@@H]2CC(=O)N(C)[C@@H](CC(C)C)C(=O)N3CCOC[C@@H]3C(=O)N[C@H](Cc3ccccc3)COc3cnc4ccccc4c3C(=O)N2)c1OC` [Example 65, (9S,13S,19aR,22R)-22-benzyl-N-(2,3-dimethoxyphenethyl)-13-isobutyl-12-methyl-7,11,14,20-tetraoxo-7,8,9,10,11,12,13,14,16,17,19,19a,20,21,22,23-hexadecahydro-[1,4]oxazino[3′,4′:6,7][1]oxa[4,7,10,14]tetraazacycloheptadecino[17,16-c]quinoline-9-carboxamide], the concentration for a half-maximal effect (EC50) came out at 647 nM and the Emax was 282%.

`CC(C)C[C@H]1C(=O)N2CCOC[C@@H]2C(=O)N[C@H](Cc2ccccc2)COc2cnc3ccccc3c2C(=O)N[C@H](C(=O)NCCc2cccc(F)c2)CC(=O)N1C` [Example 66, (9S,13S,19aR,22R)-22-benzyl-N-(3-fluorophenethyl)-13-isobutyl-12-methyl-7,11,14,20-tetraoxo-7,8,9,10,11,12,13,14,16,17,19,19a,20,21,22,23-hexadecahydro-[1,4]oxazino[3′,4′:6,7][1]oxa[4,7,10,14]tetraazacycloheptadecino[17,16-c]quinoline-9-carboxamide]: the half-maximal effective concentration (EC50) was 587 nM and the Emax turned out to be 169%.

For the compound `CC(C)C[C@H]1C(=O)N2CCOC[C@@H]2C(=O)N[C@H](Cc2ccccc2)COc2cnc3ccccc3c2C(=O)N[C@H](C(=O)NCCc2ccc(F)cc2)CC(=O)N1C` [Example 67, (9S,13S,19aR,22R)-22-benzyl-N-(4-fluorophenethyl)-13-isobutyl-12-methyl-7,11,14,20-tetraoxo-7,8,9,10,11,12,13,14,16,17,19,19a,20,21,22,23-hexadecahydro-[1,4]oxazino[3′,4′:6,7][1]oxa[4,7,10,14]tetraazacycloheptadecino[17,16-c]quinoline-9-carboxamide], the EC50 stood at 615 nM and the maximum response (Emax) stood at 236%.

Take `CC(C)C[C@H]1C(=O)N2CCOC[C@@H]2C(=O)N[C@H](Cc2ccccc2)COc2cnc3ccccc3c2C(=O)N[C@H](C(=O)NCCc2c(F)cccc2F)CC(=O)N1C` [Example 68, (9S,13S,19aR,22R)-22-benzyl-N-(2,6-difluorophenethyl)-13-isobutyl-12-methyl-7,11,14,20-tetraoxo-7,8,9,10,11,12,13,14,16,17,19,19a,20,21,22,23-hexadecahydro-[1,4]oxazino[3′,4′:6,7][1]oxa[4,7,10,14]tetraazacycloheptadecino[17,16-c]quinoline-9-carboxamide]: the EC50 was determined as 448 nM and the Emax worked out at 331%.

Regarding `CC(C)C[C@H]1C(=O)N2CCOC[C@@H]2C(=O)N[C@H](Cc2ccccc2)COc2ccc3ccccc3c2C(=O)N[C@H](C(=O)NCCc2nc(-c3ccccc3)no2)CC(=O)N1C` [Example 69, (9S,13S,19aR,22R)-22-benzyl-13-isobutyl-12-methyl-7,11,14,20-tetraoxo-N-(2-(3-phenyl-1,2,4-oxadiazol-5-yl)ethyl)-7,8,9,10,11,12,13,14,16,17,19,19a,20,21,22,23-hexadecahydro-[1,4]oxazino[3′,4′:6,7][1]oxa[4,7,10,14]tetraazacycloheptadecino[17,16-c]quinoline-9-carboxamide], the concentration for a half-maximal effect (EC50) is 454 nM and the maximal effect (Emax) stood at 262%.

With `Cc1onc(CCNC(=O)[C@@H]2CC(=O)N(C)[C@@H](CC(C)C)C(=O)N3CCOC[C@@H]3C(=O)N[C@H](Cc3ccccc3)COc3ccc4ccccc4c3C(=O)N2)c1C` [Example 70, (4aR,7R,18S,22S)-7-benzyl-N-(2-(4,5-dimethylisoxazol-3-yl)ethyl)-22-isobutyl-21-methyl-5,16,20,23-tetraoxo-1,2,4,4a,5,6,7,8,16,17,18,19,20,21,22,23-hexadecahydronaphtho[1,2-p][1,4]oxazino[3,4-f][1]oxa[4,7,10,14]tetraazacycloheptadecine-18-carboxamide], the EC50 came out at 754 nM and the Emax came out at 202%.

As for `COc1cc(CCNC(=O)[C@@H]2CC(=O)N(C)[C@@H](CC(C)C)C(=O)N3CCCC[C@@H]3C(=O)N[C@H](Cc3ccccc3)COc3cnc4ccccc4c3C(=O)N2)cc(OC)c1` [Example 71, (9S,13S,19aR,22R)-22-benzyl-N-(3,5-dimethoxyphenethyl)-13-isobutyl-12-methyl-7,11,14,20-tetraoxo-7,8,9,10,11,12,13,14,17,18,19,19a,20,21,22,23-hexadecahydro-16H-pyrido[2′,11:6,7][1]oxa[4,7,10,14]tetraazacycloheptadecino[17,16-c]quinoline-9-carboxamide], the EC50 amounted to 338 nM and the Emax turned out to be 326%.

Regarding `CC(C)C[C@H]1C(=O)N2CCCC[C@@H]2C(=O)N[C@H](Cc2ccccc2)COc2cnc3ccccc3c2C(=O)N[C@H](C(=O)NCCc2c(F)cccc2F)CC(=O)N1C` [Example 72, (9S,13S,19aR,22R)-22-benzyl-N-(2,6-difluorophenethyl)-13-isobutyl-12-methyl-7,11,14,20-tetraoxo-7,8,9,10,11,12,13,14,17,18,19,19a,20,21,22,23-hexadecahydro-16H-pyrido[2′,1′:6,7][1]oxa[4,7,10,14]tetraazacycloheptadecino[17,16-c]quinoline-9-carboxamide], the EC50 was 142 nM and the maximum response (Emax) was found to be 335%.

As for `CC(C)C[C@H]1C(=O)N2CCCC[C@@H]2C(=O)N[C@H](Cc2ccccc2)COc2cnc3ccccc3c2C(=O)N[C@H](C(=O)NCCc2c(F)cc(F)cc2F)CC(=O)N1C` [Example 73, (9S,13S,19aR,22R)-22-benzyl-13-isobutyl-12-methyl-7,11,14,20-tetraoxo-N-(2,4,6-trifluorophenethyl)-7,8,9,10,11,12,13,14,17,18,19,19a,20,21,22,23-hexadecahydro-16H-pyrido[2′,1′:6,7][1]oxa[4,7,10,14]tetraazacycloheptadecino[17,16-c]quinoline-9-carboxamide], the concentration for a half-maximal effect (EC50) turned out to be 214 nM and the maximal effect (Emax) turned out to be 253%.

For `COc1cc(F)c(CCNC(=O)[C@@H]2CC(=O)N(C)[C@@H](CC(C)C)C(=O)N3CCCC[C@@H]3C(=O)N[C@H](Cc3ccccc3)COc3cnc4ccccc4c3C(=O)N2)c(F)c1` [Example 74, (9S,13S,19aR,22R)-22-benzyl-N-(2,6-difluoro-4-methoxyphenethyl)-13-isobutyl-12-methyl-7,11,14,20-tetraoxo-7,8,9,10,11,12,13,14,17,18,19,19a,20,21,22,23-hexadecahydro-16H-pyrido[2′,1′:6,7][1]oxa[4,7,10,14]tetraazacycloheptadecino[17,16-c]quinoline-9-carboxamide], the 50% effective concentration (EC50) was 128 nM and the maximal effect (Emax) came to 271%.

Turning to `CC(C)C[C@H]1C(=O)N2CCCC[C@@H]2C(=O)N[C@H](Cc2ccccc2)COc2cnc3ccccc3c2C(=O)N[C@H](C(=O)NCCc2ccc(F)c(F)c2)CC(=O)N1C` [Example 75, (9S,13S,19aR,22R)-22-benzyl-N-(3,4-difluorophenethyl)-13-isobutyl-12-methyl-7,11,14,20-tetraoxo-7,8,9,10,11,12,13,14,17,18,19,19a,20,21,22,23-hexadecahydro-16H-pyrido[2′,1′:6,7][1]oxa[4,7,10,14]tetraazacycloheptadecino[17,16-c]quinoline-9-carboxamide], the EC50 is 255 nM and the Emax came out at 191%.
